The test system of assay [1] is A549. The assay is described as follows: Cell-based assay, anti-proliferative activity (Cell Counting Kit-8, 72 hours). As to conditions: Homo sapiens, read-out: A549 IC50. Put shortly:
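After compound exposure of cells in 96-well plates, growth was measured colorimetrically and converted into IC50 values.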
(In general: Tetrazolium assays rely on reduction of a dye to a coloured formazan, in cell work by metabolically active cells.)

The target in assay [2] is SUV39H2 (Homo sapiens (Human), UniProt Q9H5I1). Kind of assay: biochemical. It is filed as biochemical. As to conditions: 3H-SAM 100 nM, H3 Histone Peptide 350 nM, room temperature 3 hours. On the procedure:
Assay buffer (4 μL) was added into all the wells, including test compound and control wells (except for Sinefungin control wells), using the Multidrop Combi. The plate was centrifuged at 1000 rpm for 1 min. […] SUV39H2 (8 μL, final conc: optimized for each lot of the enzyme based on specific activity) was added by using the Multidrop Combi. The assay plate was centrifuged at 1000 rpm for 1 min. Assay buffer was used as background control, and incubated at room temperature for 3 hours. The reaction was stopped with 20 μL of 2.5 mg/mL Streptavidin SPA beads (final conc. 50 μg/well) in buffer using the Multidrop Combi and centrifuged for 1 min. The plate was loaded into the Trilux-Microbeta counter and a delayed read of 10 hours was made. The radioactive signal was measured at 1 min/well. Sinefungin and the internal standard compound were used as tool compounds to determine assay performance.
• The following calculations were made using the obtained CPM raw data: Software used: XLFit from IDBS.
For each test plate the following results were calculated: • Average, Standard Deviation, and % CV of Background Controls • Average, Standard Deviation, and % CV of Positive Controls • Z′ value of the plate • IC50 values of standard and test compounds (in nM) • R^2 value of fitted concentration response curve • Hill slope coefficient of fitted concentration response curve • Signal to Noise Ratio

Where [3] appears, read: A549 cells, 72 hours exposure, Cell Counting Kit-8.

SMILES strings stand for the structures. Where a name gives a salt, the structure may show the parent alone. Read-outs that look alike come from different tables or passages of the source.

One may read the IC50 as the concentration at which inhibition is half-maximal.

SUV39H2, sequence (Q9H5I1 whole entry): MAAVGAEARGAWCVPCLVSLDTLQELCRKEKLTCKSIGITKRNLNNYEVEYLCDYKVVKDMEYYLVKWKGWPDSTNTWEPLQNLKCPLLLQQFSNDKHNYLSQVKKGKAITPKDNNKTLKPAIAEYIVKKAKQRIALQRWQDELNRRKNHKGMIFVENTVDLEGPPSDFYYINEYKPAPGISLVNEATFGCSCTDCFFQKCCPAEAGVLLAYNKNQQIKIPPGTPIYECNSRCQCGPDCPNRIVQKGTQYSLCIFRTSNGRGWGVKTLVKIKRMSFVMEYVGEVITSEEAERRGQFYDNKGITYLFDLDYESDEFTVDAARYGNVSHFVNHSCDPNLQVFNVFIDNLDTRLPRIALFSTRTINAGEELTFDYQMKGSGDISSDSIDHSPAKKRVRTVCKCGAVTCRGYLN

For the compound `COc1cc(OC)c(-c2cn3ccc(N4CCN(c5ccnc(N6CCC(O)CC6)n5)CC4)cc3n2)cc1Cl` [Example 332, 1-(4-(4-(2-(5-chloro-2,4-dimethoxyphenyl)imidazo[1,2-a]pyridin-7-yl)piperazin-1-yl)pyrimidin-2-yl)piperidin-4-ol], the IC50 in assay [1] (A549, 72 h) came to 910 nM; in assay [2], 21.6 nM.

As for `COc1cc(OC)c(-c2cn3ccc(N4CCN(c5cnc(N6CCCC6)nc5)CC4)cc3n2)cc1Cl` [Example 333, 2-(5-chloro-2,4-dimethoxyphenyl)-7-(4-(2-(pyrrolidin-1-yl)pyrimidin-5-yl)piperazin-1-yl)imidazo[1,2-a]pyridine], the figures for the IC50 in assay [1] (setting [3]) and in assay [2] were 720 nM and 62 nM, respectively.

For the compound `COc1cc(OC)c(-c2cn3ccc(N4CCN(c5cnc(N6CCOCC6)nc5)CC4)cc3n2)cc1Cl` [Example 335, 4-(5-(4-(2-(5-chloro-2,4-dimethoxyphenyl)imidazo[1,2-a]pyridin-7-yl)piperazin-1-yl)pyrimidin-2-yl)morpholine], the IC50 in assay [1] (setting [3]) was determined as 690 nM; in assay [2] it was 68.5 nM.

On to `COc1cc(OC)c(-c2cn3ccc(N4CCN(Cc5ccncc5F)CC4)cc3n2)cc1Cl` [Example 336, 2-(5-chloro-2,4-dimethoxyphenyl)-7-(4-((3-fluoropyridin-4-yl)methyl)piperazin-1-yl)imidazo[1,2-a]pyridine], for which the IC50 in assay [1] (setting [3]) came out at 970 nM; in assay [2], 16.1 nM.

`COc1cc(OC)c(-c2cn3ccc(N[C@H]4CC[C@H](Nc5cncnc5)CC4)cc3n2)cc1Cl` [Example 337, (1r,4r)-N^1-(2-(5-chloro-2,4-dimethoxyphenyl)imidazo[1,2-a]pyridin-7-yl)-N^4-(pyrimidin-5-yl)cyclohexane-1,4-diamine]: the IC50 in assay [1] (setting [3]) came to 830 nM; in assay [2], 79.9 nM.

Turning to `COc1cc(OC)c(-c2cn3ccc(N4CCN(c5ccnc(N6CCC(N)CC6)n5)CC4)cc3n2)cc1Cl` [Example 338, 1-(4-(4-(2-(5-chloro-2,4-dimethoxyphenyl)imidazo[1,2-a]pyridin-7-yl)piperazin-1-yl)pyrimidin-2-yl)piperidin-4-amine], the IC50 in assay [1] (setting [3]) came to 1200 nM; in assay [2], 17 nM.

Turning to `CNc1ncc(N2CCN(c3ccn4cc(-c5cc(Cl)c(OC)cc5OC)nc4c3)CC2)cn1` [Example 340, 5-(4-(2-(5-chloro-2,4-dimethoxyphenyl)imidazo[1,2-a]pyridin-7-yl)piperazin-1-yl)-N-methylpyrimidin-2-amine trifluoroacetate], the IC50 in assay [1] (setting [3]) was 690 nM; in assay [2], 17.1 nM.

`COc1cc(OC)c(-c2cn3ccc(N4CCN(c5ccnc(N6CCNCC6)n5)CC4)cc3n2)cc1Cl` [Example 341, 2-(5-chloro-2,4-dimethoxyphenyl)-7-(4-(2-(piperazin-1-yl)pyrimidin-4-yl)piperazin-1-yl)imidazo[1,2-a]pyridine]: the IC50 is 740 nM in assay [1] (A549, 72 h) and 23.4 nM in assay [2].

For the compound `COc1cc(OC)c(-c2cn3ccc(NC4CCN(Cc5ccc([N+](=O)[O-])o5)CC4)cc3n2)cc1Cl` [Example 343, 2-(5-chloro-2,4-dimethoxyphenyl)-N-(1-((5-nitrofuran-2-yl)methyl)piperidin-4-yl)imidazo[1,2-a]pyridin-7-amine], the IC50 amounted to 910 nM in assay [1] (setting [3]) and 47.9 nM in assay [2].

In the case of `COc1cc(OC)c(-c2cn3ccc(N4CCN(Cc5ccncc5Br)CC4)cc3n2)cc1Cl` [Example 345, 7-(4-((3-bromopyridin-4-yl)methyl)piperazin-1-yl)-2-(5-chloro-2,4-dimethoxyphenyl)imidazo[1,2-a]pyridine], the IC50 in assay [1] (setting [3]) is 850 nM; in assay [2] it was 35.4 nM.

As for `COc1cc(OC)c(-c2cn3ccc(N4CCN(c5ccnc(N6CCC(O)C6)n5)CC4)cc3n2)cc1Cl` (centres unmarked) [Example 346, 1-(4-(4-(2-(5-chloro-2,4-dimethoxyphenyl)imidazo[1,2-a]pyridin-7-yl)piperazin-1-yl)pyrimidin-2-yl)pyrrolidin-3-ol], the IC50 in assay [1] (A549, 72 h) was found to be 590 nM; in assay [2] it was 15.3 nM.

For `COc1cc(OC)c(-c2cn3ccc(N[C@H]4CC[C@@H](N(C)Cc5ccccc5C)CC4)cc3n2)cc1Cl` [Example 348, cis-N^1-(2-(5-chloro-2,4-dimethoxyphenyl)imidazo[1,2-a]pyridin-7-yl)-N^4-methyl-N^4-(2-methylbenzyl)cyclohexane-1,4-diamine bis(2,2,2-trifluoroacetate)], the IC50 in assay [1] (setting [3]) worked out at 750 nM; in assay [2], 31.2 nM.

In the case of `COc1cc(OC)c(-c2cn3ccc(N4CCN(c5ncc([N+](=O)[O-])cc5C#N)CC4)cc3n2)cc1Cl` [Example 349, 2-(4-(2-(5-chloro-2,4-dimethoxyphenyl)imidazo[1,2-a]pyridin-7-yl)piperazin-1-yl)-5-nitronicotinonitrile], the figures for the IC50 in assay [1] (setting [3]) and in assay [2] were 610 nM and 14.9 nM, respectively.

For `COc1cc(OC)c(-c2cn3ccc(N4CCN(c5cnc(N6CCC(N)CC6)nc5)CC4)cc3n2)cc1Cl` [Example 350, 1-(5-(4-(2-(5-chloro-2,4-dimethoxyphenyl)imidazo[1,2-a]pyridin-7-yl)piperazin-1-yl)pyrimidin-2-yl)piperidin-4-amine], the IC50 in assay [1] (setting [3]) amounted to 680 nM; in assay [2], 7.35 nM.

For `COc1cc(OC)c(-c2cn3ccc(N4CCN(c5ccnc(N6CCN(C)CC6)n5)CC4)cc3n2)cc1Cl` [Example 351, 2-(5-chloro-2,4-dimethoxyphenyl)-7-(4-(2-(4-methylpiperazin-1-yl)pyrimidin-4-yl)piperazin-1-yl)imidazo[1,2-a]pyridine], the IC50 is 860 nM in assay [1] (setting [3]) and 28.6 nM in assay [2].

For the compound `COc1cc(OC)c(-c2cn3ccc(N4CCN(Cc5ncccn5)CC4)cc3n2)cc1Cl` [Example 352, 2-(5-chloro-2,4-dimethoxyphenyl)-7-(4-(pyrimidin-2-ylmethyl)piperazin-1-yl)imidazo[1,2-a]pyridine], the figures for the IC50 in assay [1] (setting [3]) and in assay [2] were 10000 nM and 9.25 nM, respectively.

As to `COc1cc(OC)c(-c2cn3ccc(N4CCN(c5cc(N6CCCCC6)ncn5)CC4)cc3n2)cc1Cl` [Example 353, 2-(5-chloro-2,4-dimethoxyphenyl)-7-(4-(6-(piperidin-1-yl)pyrimidin-4-yl)piperazin-1-yl)imidazo[1,2-a]pyridine], the IC50 in assay [1] (setting [3]) worked out at 780 nM; in assay [2], 41.9 nM.

With `COc1cc(OC)c(-c2cn3ccc(N4CCN(c5ccnc(N6CCC(N)C6)n5)CC4)cc3n2)cc1Cl` (centres unmarked) [Example 354, 1-(4-(4-(2-(5-chloro-2,4-dimethoxyphenyl)imidazo[1,2-a]pyridin-7-yl)piperazin-1-yl)pyrimidin-2-yl)pyrrolidin-3-amine], the IC50 in assay [1] (setting [3]) was 490 nM; in assay [2] it was 12.9 nM.

Regarding `COc1cc(OC)c(-c2cn3ccc(N4CCN(c5cc(N6CCCC6)ncn5)CC4)cc3n2)cc1Cl` [Example 355, 2-(5-chloro-2,4-dimethoxyphenyl)-7-(4-(6-(pyrrolidin-1-yl)pyrimidin-4-yl)piperazin-1-yl)imidazo[1,2-a]pyridine], the IC50 in assay [1] (setting [3]) came to 670 nM; in assay [2], 38.8 nM.

Turning to `COc1cc(OC)c(-c2cn3ccc(N4CCN(c5nccc(N(C)C)n5)CC4)cc3n2)cc1Cl` [Example 356, 2-(4-(2-(5-chloro-2,4-dimethoxyphenyl)imidazo[1,2-a]pyridin-7-yl)piperazin-1-yl)-N,N-dimethylpyrimidin-4-amine], the IC50 turned out to be 380 nM in assay [1] (setting [3]) and 60.6 nM in assay [2].

As to `COc1cc(OC)c(-c2cn3ccc(N4CCN(c5ccnc(N6CCCC(O)C6)n5)CC4)cc3n2)cc1Cl` (centres unmarked) [Example 357, 1-(4-(4-(2-(5-chloro-2,4-dimethoxyphenyl)imidazo[1,2-a]pyridin-7-yl)piperazin-1-yl)pyrimidin-2-yl)piperidin-3-ol], the IC50 in assay [1] (setting [3]) is 600 nM; in assay [2] it was 25.8 nM.

As for `COc1cc(OC)c(-c2cn3ccc(N4CCN(c5cnc(N6CCN(C)CC6)nc5)CC4)cc3n2)cc1Cl` [Example 358, 2-(5-chloro-2,4-dimethoxyphenyl)-7-(4-(2-(4-methylpiperazin-1-yl)pyrimidin-5-yl)piperazin-1-yl)imidazo[1,2-a]pyridine], the values for the IC50 in assay [1] (setting [3]) and in assay [2] were 390 nM and 17.1 nM, respectively.

With `COc1cc(OC)c(-c2cn3ccc(N4CCN(c5nccc(N6CCNCC6)n5)CC4)cc3n2)cc1Cl` [Example 359, 2-(5-chloro-2,4-dimethoxyphenyl)-7-(4-(4-(piperazin-1-yl)pyrimidin-2-yl)piperazin-1-yl)imidazo[1,2-a]pyridine dihydrochloride], the IC50 in assay [1] (A549, 72 h) worked out at 400 nM; in assay [2], 12.2 nM.

`COc1cc(OC)c(-c2cn3ccc(N4CCN(c5cc(Cl)nc(N)n5)CC4)cc3n2)cc1Cl` [Example 360, 4-chloro-6-(4-(2-(5-chloro-2,4-dimethoxyphenyl)imidazo[1,2-a]pyridin-7-yl)piperazin-1-yl)pyrimidin-2-amine]: the IC50 is 620 nM in assay [1] (setting [3]) and 56 nM in assay [2].

For the compound `COc1cc(OC)c(-c2cn3ccc(N4CCN(c5nc(N)nc(Cl)n5)CC4)cc3n2)cc1Cl` [Example 361, 4-chloro-6-(4-(2-(5-chloro-2,4-dimethoxyphenyl)imidazo[1,2-a]pyridin-7-yl)piperazin-1-yl)-1,3,5-triazin-2-amine], the IC50 came to 870 nM in assay [1] (setting [3]) and 43.3 nM in assay [2].

Values taken from US10508109B2 (priority 2015, dated 2019).
